The source of these data is patent US10189826B2, “Heterocyclic compounds and methods of use” (Medivation Technologies LLC, priority 2015, dated 2019).

The test system of data set [1] is SREBP-2 transcriptional activity (SREBP2 cleavage) in HepG2_LSSprom cells. Description: Luciferase reporter driven by a SREBP-2 specific promoter in HepG2_LSSprom cells. Type of data set: cell-based. Conditions: read-out: SREBP2 Cleavage (IC50 μM) 24 h. The essentials: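 HepG2_LSSprom cells dosed at 0.625-10 μM in serum-free medium for 6 h (or 24 h), then luciferase luminescence read. Signal normalized to vehicle (100%); IC50 by four-parameter nonlinear fit; five independent experiments, triplicate wells.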
On the technique in general: In a reporter assay the amount or activity of a reporter protein is the signal.

Data set [2] is described as follows: Cytotoxicity assay (LDH release) in HepG2_LSSprom cells. Format: cell-based. Conditions: human, 24 h treatment, LDH release. The essentials:
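HepG2_LSSprom cells exposed to compound at 0.625–10 μM in serum-free medium for 6 h or 24 h. Medium LDH measured colorimetrically at 490 nm; release expressed as % of lysis control after vehicle subtraction, negatives set to 0; five independent experiments, triplicate wells, mean±SEM.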
(In general: LDH leaks from cells whose membrane has failed.)

Setting [3] is: 24 h, 24 h treatment, HepG2_LSSprom cells.
Where [4] appears, read: 24 h treatment, HepG2_LSSprom cells.

Where two headings read alike, the source gives them in different places.

Regarding `Cc1cc(C)c(CNC(=O)c2ccc(-c3csc(-c4ccnc(C(C)(C)C)c4)c3)c(Cl)c2)c(=O)[nH]1` [Compound 53, 4-[5-(2-tert-butylpyridin-4-yl)thiophen-3-yl]-3-chloro-N-[(4,6-dimethyl-2-oxo-1,2-dihydropyridin-3-yl)methyl]benzamide], the half-maximal inhibitory concentration (IC50) (in general, the concentration that gives 50% inhibition) in data set [1] (setting [3]) amounted to 3.9 µM. Besides, in data set [2] (HepG2 LSSprom cells), the IC50 at 24 h was > 10 µM.
Take `CC(C)(C)c1cc(-c2cc(-c3ccc(C(=O)N4CCC[C@@H](N)C4)cc3Cl)cs2)ccn1` [Compound 21a, (R)-(3-aminopiperidin-1-yl)(4-(5-(2-(tert-butyl)pyridin-4-yl)thiophen-3-yl)-3-chlorophenyl)methanone]: the IC50 in data set [1] (setting [3]) was 0.71 µM. For the same molecule, the IC50 at 24 h in data set [2] (HepG2 LSSprom cells) was > 10 µM.
The matching figures for `CC(C)(C)c1cc(-c2csc(-c3ccc(C(=O)N4CCC(O)CC4)cc3Cl)c2)ccn1` [Compound 86, 1-{4-[4-(2-tert-butylpyridin-4-yl)thiophen-2-yl]-3-chlorobenzoyl}piperidin-4-ol]: 0.06 µM and > 10 µM.
Consider `CC(C)(C)c1cc(-c2cc(-c3ccc(C(=O)N4CCCC(NCc5cccc(Cl)c5)C4)cc3Cl)cs2)ccn1` (stereo not drawn) [Compound 81, 1-{4-[5-(2-tert-butylpyridin-4-yl)thiophen-3-yl]-3-chlorobenzoyl}-N-[(3-chlorophenyl)methyl]piperidin-3-amine], for which the IC50 in data set [1] (setting [3]) is 0.14 µM. Further, in data set [2] (HepG2 LSSprom cells), the IC50 at 24 h is > 10 µM.
On the same counts, the results for `CC(C)(C)c1cc(-c2cc(-c3ccc(C(=O)Nc4cccnc4)cc3Cl)cs2)ccn1` [Compound 58, 4-[5-(2-tert-butylpyridin-4-yl)thiophen-3-yl]-3-chloro-N-(pyridin-3-yl)benzamide] are 1.4 µM and > 10 µM.
On the same counts, the results for `CC(C)(C)c1cc(-c2cc(-c3ccc(C(=O)NCC(=O)N4CCOCC4)cc3Cl)cs2)ccn1` [Compound 61, 4-[5-(2-tert-butylpyridin-4-yl)thiophen-3-yl]-3-chloro-N-[2-(morpholin-4-yl)-2-oxoethyl]benzamide] are 1.5 µM and > 10 µM.
As to `CC(C)(C)c1cc(-c2nc(-c3ccc(C(=O)N4CCC(F)(F)CC4)cc3Cl)c[nH]2)ccn1` [Compound 24, 2-tert-butyl-4-{4-[2-chloro-4-(4,4-difluoropiperidine-1-carbonyl)phenyl]-1H-imidazol-2-yl}pyridine], the IC50 in data set [1] (setting [3]) is > 3 µM; in data set [1] (setting [4]), 2.7 µM. Further, the 50% inhibitory concentration (IC50) at 24 h in data set [2] (HepG2 LSSprom cells) is > 10 µM.
As to `Cc1sc(-c2ccc(C(=O)N3CCC[C@H](N)C3)cc2Cl)cc1-c1ccnc(C(C)(C)C)c1` [Compound 87a, (3S)-1-{4-[4-(2-tert-butylpyridin-4-yl)-5-methylthiophen-2-yl]-3-chlorobenzoyl}piperidin-3-amine], the IC50 in data set [1] (setting [3]) was > 10 µM. For the same molecule, in data set [2] (HepG2 LSSprom cells), the IC50 at 24 h is > 10 µM.
Turning to `CC(C)(C)OC(=O)N1CCCC(NC(=O)c2ccc(-c3csc(-c4ccnc(C(C)(C)C)c4)c3)c(Cl)c2)C1` (stereo not drawn) [Compound 71, tert-butyl 3-{4-[5-(2-tert-butylpyridin-4-yl)thiophen-3-yl]-3-chlorobenzamido}piperidine-1-carboxylate], the IC50 in data set [1] (setting [3]) came to 0.34 µM. Moreover, the IC50 at 24 h in data set [2] (HepG2 LSSprom cells) is > 10 µM.
The matching figures for `CN(C(=O)c1ccc(-c2csc(-c3ccnc(C(C)(C)C)c3)c2)c(Cl)c1)c1ccccc1` [Compound 41, 4-[5-(2-tert-butylpyridin-4-yl)thiophen-3-yl]-3-chloro-N-methyl-N-phenyl benzamide]: 0.39 µM and > 10 µM.
As to `CC(C)(C)c1cc(-c2cc(-c3ccc(C(=O)N4CC5(COC5)C4)cc3Cl)cs2)ccn1` [Compound 43, 6-{4-[5-(2-tert-butylpyridin-4-yl)thiophen-3-yl]-3-chlorobenzoyl}-2-oxa-6-azaspiro[3.3]heptane], the IC50 in data set [1] (setting [3]) is 3.8 µM. Moreover, the IC50 at 24 h in data set [2] was > 10 µM.
As for `CC(C)N(C(=O)c1ccc(-c2csc(-c3ccnc(C(C)(C)C)c3)c2)c(Cl)c1)C(C)C` [Compound 33, 4-[5-(2-tert-butylpyridin-4-yl)thiophen-3-yl]-3-chloro-N,N-bis(propan-2-yl) benzamide], the IC50 in data set [1] (setting [3]) stood at 0.21 µM. In data set [2] (HepG2 LSSprom cells), the IC50 at 24 h is > 10 µM.
On to `CC1(N)CCCN(C(=O)c2ccc(-c3cc(-c4ccnc(C(C)(C)C)c4)cs3)c(Cl)c2)C1` (single isomer, unassigned) [Compound 95a], for which the IC50 in data set [1] (setting [4]) worked out at 0.26 µM. Besides, the IC50 at 24 h in data set [2] (HepG2 LSSprom cells) is > 10 µM.
As for `Cc1sc(-c2ccnc(C(C)(C)C)c2)cc1-c1ccc(C(=O)N2CCCCC2)cc1Cl` [Compound 16, 2-tert-butyl-4-{4-[2-chloro-4-(piperidine-1-carbonyl)phenyl]-5-methylthiophen-2-yl}pyridine], in data set [1] (setting [3]), the half-inhibitory concentration (IC50) stood at 0.81 µM. For the same molecule, the IC50 at 24 h in data set [2] (HepG2 LSSprom cells) was > 3 µM.
On the same counts, the results for `CC(C)(C)c1cc(-c2cc(-c3ccc(C(=O)N4CCC[C@@H](NCc5ccc(Cl)cc5)C4)cc3Cl)cs2)ccn1` [Compound 80a, (R)-(4-(5-(2-(tert-butyl)pyridin-4-yl)thiophen-3-yl)-3-chlorophenyl)(3-((4-chlorobenzyl)amino)piperidin-1-yl)methanone] are 0.095 µM and > 10 µM.
The matching figures for `CC(C)(C)c1cc(-c2cc(-c3ccc(C(=O)N4CCC(N)CC4)cc3Cl)cs2)ccn1` [Compound 72, 1-{4-[5-(2-tert-butylpyridin-4-yl)thiophen-3-yl]-3-chlorobenzoyl}piperidin-4-amine]: > 10 µM and > 10 µM.
As to `CC(C)(C)c1cc(-c2csc(-c3ccc(C(=O)N(CCC(=O)O)c4ccc(F)cc4)cc3Cl)c2)ccn1` [Compound 73, 3-(N-[4-[4-(2-tert-butyl-4-pyridyl)-2-thienyl]-3-chloro-benzoyl]-4-fluoro-anilino)propanoic acid], in data set [1] (24 h), the IC50 was > 3 µM. Further, the IC50 at 24 h in data set [2] (HepG2 LSSprom cells) was > 10 µM.
With `CC(C)(C)c1cc(-c2cc(-c3ccc(C(=O)N4CCNCC4)cc3Cl)cs2)ccn1` [Compound 28, 1-{4-[5-(2-tert-butylpyridin-4-yl)thiophen-3-yl]-3-chlorobenzoyl}piperazine], in data set [1] (setting [3]), the IC50 is > 3 µM. Further, the IC50 at 24 h in data set [2] (HepG2 LSSprom cells) was > 10 µM.
The matching figures for `CC(C)(C)c1cc(-c2cc(-c3ccc(C(=O)N4CCCC(NCc5ccc(Cl)cc5)C4)cc3Cl)cs2)ccn1` (stereo not drawn) [Compound 80, 1-{4-[5-(2-tert-butylpyridin-4-yl)thiophen-3-yl]-3-chlorobenzoyl}-N-[(4-chlorophenyl)methyl]piperidin-3-amine]: 0.06 µM and > 10 µM.
On the same counts, the results for `CC(C)(C)c1cc(-c2nc(-c3ccc(C(=O)N4CCCCC4)cc3Cl)c[nH]2)ccn1` [Compound 25, 2-tert-butyl-4-{4-[2-chloro-4-(piperidine-1-carbonyl)phenyl]-1H-imidazol-2-yl}pyridine] are 0.62 µM and > 10 µM.
The matching figures for `CC(C)(C)c1cc(-c2cc(-c3ccc(C(=O)N4CCNC(=O)C4)cc3Cl)cs2)ccn1` [Compound 7, 4-{4-[5-(2-tert-butylpyridin-4-yl)thiophen-3-yl]-3-chlorobenzoyl}piperazin-2-one]: > 1 µM and > 3 µM.
In the case of `CC(C)(C)c1cc(-c2cc(-c3ccc(C(=O)Nc4cccc(O)c4)cc3Cl)cs2)ccn1` [Compound 49, 4-[5-(2-tert-butylpyridin-4-yl)thiophen-3-yl]-3-chloro-N-(3-hydroxyphenyl) benzamide], the IC50 in data set [1] (setting [3]) was > 1 µM. Besides, the IC50 at 24 h in data set [2] (HepG2 LSSprom cells) is > 10 µM.
On the same counts, the results for `CC(C)(C)C(=O)NC1CCN(C(=O)c2ccc(-c3csc(-c4ccnc(C(C)(C)C)c4)c3)c(Cl)c2)CC1` [Compound 76, N-(1-{4-[5-(2-tert-butylpyridin-4-yl)thiophen-3-yl]-3-chlorobenzoyl}piperidin-4-yl)-2,2-dimethylpropanamide] are 1.6 µM and > 10 µM.
On the same counts, the results for `CC(C)(C)c1cc(-c2csc(-c3ccc(C(=O)N4CCCc5ncccc54)cc3Cl)c2)ccn1` [Compound 97, 1-{4-[4-(2-tert-butylpyridin-4-yl)thiophen-2-yl]-3-chlorobenzoyl}-1,2,3,4-tetrahydro-1,5-naphthyridine] are 0.17 µM and > 3 µM.
On the same counts, the results for `CC(C)(C)c1cc(-c2cc(-c3ccc(C(=O)N4CCC[C@H](O)C4)cc3Cl)cs2)ccn1` [Compound 48b, (S)-(4-(5-(2-(tert-butyl)pyridin-4-yl)thiophen-3-yl)-3-chlorophenyl)(3-hydroxypiperidin-1-yl)methanone] are 0.12 µM and > 10 µM.
For the molecule `CN1C2CCC1CC(NC(=O)c1ccc(-c3csc(-c4ccnc(C(C)(C)C)c4)c3)c(Cl)c1)C2` (stereo not drawn) [Compound 62], the IC50 in data set [1] (24 h) was > 3 µM. For the same molecule, the IC50 at 24 h in data set [2] (HepG2 LSSprom cells) was > 10 µM.
Turning to `CC(C)(C)c1cc(-c2csc(-c3ccc(C(=O)N4CCC[C@H](N)C4)cc3Cl)c2)ccn1` [Compound 74b, (3S)-1-{4-[4-(2-tert-butylpyridin-4-yl)thiophen-2-yl]-3-chlorobenzoyl}piperidin-3-amine], in data set [1] (setting [3]), the half-inhibitory concentration (IC50) was 0.51 µM. In data set [2] (HepG2 LSSprom cells), the IC50 at 24 h is > 10 µM.
On the same counts, the results for `Cc1sc(-c2ccnc(C(C)(C)C)c2)cc1-c1ccc(C(=O)N2CCCC(N)C2)cc1Cl` (stereo not drawn) [Compound 66, 1-{4-[5-(2-tert-butylpyridin-4-yl)-2-methylthiophen-3-yl]-3-chlorobenzoyl}piperidin-3-amine] are > 10 µM and > 10 µM.
